The source of these data is patent publication US4973576A, “Bisphophonic acid derivatives and pharmaceutical compositions containing the same” (Yamanouchi Pharmaceutical Co., Ltd., priority 1987, dated 1990).

The subject of assay [1] is hypercalcemia induced by administration of parathyroid hormone (PTH). Kind of assay: Inhibitory effect on hypercalcemia induced by PTH in rats (serum Ca++). It counts as in vivo, male Wistar rats. The following applies: 72 hours before PTH injection, mean ± S.E. Here is the method: Rats of hypercalcemia induced by administration of parathyroid hormone (hereinafter referred to as "PTH") were used, and the decrement of the serum calcium amount by administration of the compound was measured.
30 μg/kg of human 1-34 PTH (manufactured by Peptide Laboratory) which was dissolved in a 0.1% BSA (bovine serum albumin)-containing physiological saline (content of the PTH is 6 μg/ml) was intravenously injected in an amount of 30 μg/kg (5 ml/kg as the solution) to 5-week male Wistar rats which had been fasting for 20 hours. Only 0.1% BSA-containing physiological saline was injected to the normal control group in the same manner. 45 minutes after the PTH injection, the rats were etherized and then subjected to celiotomy, whereby the blood was collected from the abdominal cava with a vacuum blood-collecting tube. The blood collected was immediately centrifuged by 3000 rpm, at 4° C. for 10 minutes to isolate the serum. The ionized calcium (Ca^++) concentration in the serum was immediately measured with a Ca^++ meter (Sera 250, manufactured by Horiba Manufacturing Co.).
The compounds of the present invention were dissolved using sodium hydroxide and hydrochloric acid, in physiological saline (pH 7.4), for subcutaneous administration, in such amounts that the dose amounted to 2 ml/kg, and for oral administration, in distilled water (pH 7.4) so that the dose amounted to 5 ml/kg. They were administered 24 or 72 hours before the PTH injection. A physiological saline or a distilled water was administered to the normal control group and the control group, in the same manner. Salmon calcitonin (SCT, manufactured by Armour Co.) was dissolved in physiological saline so that the dose amounted to 2 ml/kg, and then subcutaneously administered 30 minutes before the PTH injection.
The results for each group were expressed in terms of mean±S.E. (standard error) and comparison was made among the groups by testing by one-way analysis of variance. The significance level was taken at 5%.

Assay [2] relates to immobilization-induced atrophy of bone. Kind of assay: Inhibition of bone resorption: immobilization-induced (neurectomy) atrophy of bone in rats. It counts as in vivo, Wistar rats. The following applies: 2 weeks.
Assay [3] deals with adjuvant arthritis. Kind of assay: Experiment (3)-I: therapeutic effect on adjuvant arthritis in rats. The following applies: po. The class given is in vivo, male Lewis rats. As to the method: (§1) Specifically, for investigation of the anti-arthritic effect, experimental models of adjuvant arthritis which is resemble to rheumatoid arthritis in human were used in two test methods. In one method to test the therapeutic effect of the compounds, the compounds to be tested were administered to the animals already having the adjuvant arthritis. In the other method to test the prophylactic effect of the compounds, these were administered after the adjuvant administration, and the expression and progress of the resulting arthritis, if any, was observed.
0.1 ml of a suspension of dry dead cells of Mycobacterium butyricum as suspended in liquid paraffin in a proportion of 6 mg/ml was subcutaneously injected to male Lewis rats (7-week) in the tail. After 17 or 18 days, the thickness of the both hind paws was measured. One group comprising six rats in which the arthritis was noticeably observed was isolated. After the grouping day, the compound to be tested was subcutaneously or orally administered once a day for 14 days to the rats. Next day after the last administration, the thickness of the soles of the both hind legs was again measured.
(§2) For the Experiments (3)-I and (3)-II, the compounds of the present invention were dissolved, using sodium hydroxide and hydrochloric acid in physiological saline (pH 7.4), for subcutaneous administration, in such amount that the dose amounted to 2 ml/kg, and for oral administration, in distilled water (pH 7.4) so that the dose amounted to 5 ml/kg; and indometacin (as comparative drug) was suspended in 0.5% methyl cellulose solution so that the dose amounted to 5 ml/kg. Each rat was weighed at the first day of starting the administration of the compound to be tested and at the last day of the administration of the compound, and the difference of the weight there between (ΔB.W.) was obtained.
(§3) The results for each group were expressed in terms of mean ±S.E. (standard error) and comparison was made among the groups by testing by one-way analysis of variance. The significance level was taken at 5%.

Assay [4] concerns adjuvant arthritis. Kind of assay: Experiment (3)-II: prophylactic effect on adjuvant arthritis in rats. The class given is in vivo, male Lewis rats. To be noted: po, 1 mg/kg once a day 21 days. Here is the method: as §1
0.05 ml of the suspension of dry dead bacilli of Mycobacterium butyricum as suspended in liquid paraffin in a proportion of 6 mg/ml was subcutaneously injected to male Lewis rats (6 to 7-week) in the left hind paw. After the adjuvant injection, the compound to be tested was administered to the rats once a day for 21 days. Next day after the last administration, the thickness of the both hind paws of the rats was measured.
as §2, §3

Setting [5] is: 1 mg/kg once a day 14 days, 1 mg/kg.

Several values for one entry are separate records, joined by “and”; a condition that tells them apart may be missing. Equal values may be shown once.

Regarding `CCCCCc1cc(NC(P(=O)(O)O)P(=O)(O)O)no1` [Example 21, [(5-n-pentyl-3-isoxazolyl)amino]methylene-bis(phosphonic acid)], the “Serum Ca++” value in assay [1] (oral, 10 mg/kg) was 1.52 ± 0.02 m mole/liter; in assay [1] (oral, 30 mg/kg) it was 1.36 ± 0.06 m mole/liter; in assay [1] (oral, 100 mg/kg), 1.33 ± 0.04 m mole/liter; in assay [1] (sc, 0.01 mg/kg) it was 1.47 ± 0.02 m mole/liter; in assay [1] (sc, 0.03 mg/kg) it was 1.38 ± 0.01 m mole/liter; in assay [1] (sc, 0.1 mg/kg), 1.22 ± 0.003 m mole/liter. The “Left humerus Ashed weight” value is listed as 64.4 ± 2.3 mg in assay [2] (oral, 3 mg/kg); 67.0 ± 1.2 mg in assay [2] (oral, 10 mg/kg); 65.7 ± 0.9 mg in assay [2] (oral, 30 mg/kg); 65.7 ± 0.9 mg in assay [2] (sc, 0.01 mg/kg); 73.6 ± 0.7 mg in assay [2] (sc, 0.03 mg/kg); 72.8 ± 1.8 mg in assay [2] (sc, 0.1 mg/kg). The “Left humerus Ashed weight / Dry weight” value is 54.4 ± 0.2% in assay [2] (oral, 3 mg/kg); 56.0 ± 0.4% in assay [2] (oral, 10 mg/kg); 56.5 ± 0.2% in assay [2] (oral, 30 mg/kg); 56.4 ± 0.2% in assay [2] (sc, 0.01 mg/kg); 56.9 ± 0.2% in assay [2] (sc, 0.03 mg/kg); 55.9 ± 0.4% in assay [2] (sc, 0.1 mg/kg). Further, the “Left humerus Dry weight” value worked out at 113.0 ± 3.1 mg in assay [2] (oral, 3 mg/kg); 115.2 ± 4.0 mg in assay [2] (oral, 10 mg/kg); 118.7 ± 2.0 mg in assay [2] (oral, 30 mg/kg); 116.5 ± 1.5 mg in assay [2] (sc, 0.01 mg/kg); 129.2 ± 1.0 mg in assay [2] (sc, 0.03 mg/kg); 130.1 ± 3.2 mg in assay [2] (sc, 0.1 mg/kg). For the same molecule, the “Thickness of Paw (average of right and left paws)” value in assay [3] (10 mg/kg once a day 14 days) is given as 1317 ± 35 × 0.01 mm; in assay [3] (30 mg/kg once a day 14 days) it was 1321 ± 35 × 0.01 mm; in assay [3] (100 mg/kg once a day 14 days) it was 1119 ± 52 × 0.01 mm. In addition, the ΔB.W. is given as 29.7 ± 1.1 g in assay [3] (10 mg/kg once a day 14 days), 30.0 ± 1.1 g in assay [3] (30 mg/kg once a day 14 days) and 29.7 ± 4.5 g in assay [3] (100 mg/kg once a day 14 days).
With `COc1ccc2c(c1)c(CC(=O)O)c(C)n2C(=O)c1ccc(Cl)cc1` [Indometacin, reference compound], in assay [3] (setting [5]), the “Thickness of Paw (average of right and left paws)” value is 956 ± 32 × 0.01 mm and 1044 ± 46 × 0.01 mm and 931 ± 26 × 0.01 mm; the ΔB.W. is 67 ± 4 g and 51 ± 4 g and 58.2 ± 1.9 g. Besides, the ΔB.W. in assay [4] was determined as 261 ± 7 g. Also, in assay [4] (adjuvant-injected paw), the “Thickness of Paw, Left” value was 1096 ± 41 × 0.01 mm. Moreover, the “Thickness of Paw, Right” value in assay [4] (opposite paw) is 1028 ± 47 × 0.01 mm.
